What all share (type): cell-based
Settings in all cases: culture solution containing 20 μM doxorubicin, 24 hours, optical microscope

One data set relates to human fibroblast cells. Nature of the data set: Fluidic chip three-dimensional culture with doxorubicin, fibroblast cells downstream of hepatoma cells (control). As to the method: (§1) Cardiac toxicity known as efficacy and side effect of doxorubicin widely used as an anticancer drug was assessed using the fluidic chip for cell culture use according to the present invention.
(§2) First, five culture vessels 9a each enclosing human hepatoma-derived cells were manufactured, three culture vessels 9b each enclosing human umbilical vein endothelial cells were manufactured, three culture vessels 9c each enclosing human myocardial cells were manufactured, three culture vessels 9d each enclosing human bronchial epithelial cells were manufactured, and three culture vessels 9e each enclosing human fibroblast cells were manufactured. These culture vessels 9a to 9e were subjected to preparatory culture (cultured in three dimensions) for two days in wells 33 of the multi-well plate 32, respectively. The culture vessels were manufactured in the same manner as in the cell culture experiment (1), except that the kinds of the cells to be cultured were changed. FIG. 15 illustrates the photograph of the multi-well plate 32 after the preparatory culture.
(§3) Thereafter, the culture vessels 9a to 9e were set on an optical microscope, and the cultured cells were observed. […] Then, sample cells in good condition in shape were only extracted. […]

Data set [1] deals with human hepatoma-derived cells. Nature of the data set: Fluidic chip three-dimensional culture with doxorubicin, hepatoma cells (upstream). The method, then:
as §1, §2, §3

Another data set relates to human myocardial cells. Description: Fluidic chip three-dimensional culture with doxorubicin, cardiac toxicity on myocardial cells downstream of hepatoma cells. As to the method: as §1, §2, §3
Data set [2] has as its system human bronchial epithelial cells. Nature of the data set: Fluidic chip three-dimensional culture with doxorubicin, bronchial epithelial cells downstream of hepatoma cells (control). The method, then:
as §1, §2, §3

We go through one compound from patent publication US11884905B2, “Fluidic chip for cell culture use, culture vessel, and culture method” (University Public Corporation Osaka, priority 2017, dated 2024).

Turning to `COc1cccc2c1C(=O)c1c(O)c3c(c(O)c1C2=O)C[C@@](O)(C(=O)CO)C[C@@H]3O[C@H]1C[C@H](N)[C@H](O)[C@H](C)O1` [doxorubicin], the “change in shape / growth of fibroblast cells” value in the data set with human fibroblast cells is given as “the fibroblast cells continued to grow”. Further, in data set [1], the “change in shape of hepatoma cells (infiltrating portions), efficacy as anticancer drug” value is “the infiltrating portions disappear within twenty-four hours”. Besides, the “change in shape of myocardial cells (cardiac toxicity)” value in the data set with human myocardial cells was “entirely reduced in size”. In data set [2], the “change in shape / growth of bronchial epithelial cells” value was “a branch of a bronchus was wide and continued to grow”.
